Assay results: patent publication US10835505B2, “Oral pharmaceutical formulation for weight loss, diabetes and related disorders” (priority 2018, dated 2020)
Where a name gives a salt, the structure may show the parent alone.

How the values were obtained:
TAS2R subtypes = details: cited from earlier work
[1] = in vivo; cited from earlier work
[2] = C57BL/6 DIO mice, 60 μmol/kg DB (26.8 mg/kg) once daily, 28-day period, vs vehicle; cited from earlier work
[3] = acute food intake inhibition study, oral gavage, Sprague Dawley rats; assay type: in vivo
Description: In a short-term food intake inhibition study, in Sprague Dawley rats the doses of DB administered were 7.5, 15, 30, and 60 μmol/kg. The corresponding human equivalent doses (HED) are be 1.2, 2.4, 4.9, 9.7 μmol/kg, respectively. In a longer-term food intake inhibition study in C57BL/6NTac mice the dose of DB used was 60 μmol/kg. The corresponding HED was 4.9 μmol/kg. […] Therefore, the disclosed formulation provides a dose of DB from about 500 nmol/kg to about […], which corresponds to from about 10 mg to about 200 mg for a human adult.
This example provides the results of an oral dose rat gavage study, measuring food and water intake following administration of a disclosed formulation by gavage. We conducted an acute food intake inhibition study of DB in Sprague Dawley rats.
For a longer term study, in view of the foregoing acute study findings, the effect of a combination of components was investigated. To ensure the adequate effect of the DB combination, 60 μmol/kg (26.8 mg/kg) once daily for DB in the first two weeks of the study was used, and then switched to twice daily in the last two weeks of the study.

[4] = normal C57BL/6 mice, oral DB only at 60 μmol/kg (26.8 mg/kg); cited from earlier work
[5] = healthy volunteers, 1 μmol/kg DB; cited from earlier work
[6] = judged, times more bitter than denatonium benzoate; cited from earlier work

O=C(/C=C/c1ccc(O)c(O)c1)O[C@@H]1C[C@]2(O)C[C@@H](OC2=O)[C@@H]1O [3-CQL, (1R,3R,4R,5R)-1,4-Dihydroxy-7-oxo-6-oxabicyclo[3.2.1]oct-3-yl (2E)-3-(3,4-dihydroxyphenyl)acrylate]
number of TAS2R subtypes activated (TAS2R subtypes): eight

CN1CCc2cccc3c2[C@H]1Cc1ccc(O)c(O)c1-3 [Apomorphine, (6aR)-5,6,6a,7-Tetrahydro-6-methyl-4H-dibenzo(de,g)chinolin-10,11-diol hydrochlorid]
oral availability [1]: ~4%

CC[N+](CC)(CC(=O)Nc1c(C)cccc1C)Cc1ccccc1.O=C([O-])c1ccccc1 [DB, benzyl-[2-(2,6-dimethylanilino)-2-oxoethyl]-diethylazanium benzoate]
body weight [2]: induced a decrease in body weight | food intake ([3]; Sprague Dawley rats, various doses of DB by gavage, within the first 6 h after administration): significantly inhibited food intake | half-life ([3]; rat, in vivo, oral, inferred from duration of food intake inhibition in Sprague Dawley rats): 6 h | gastric emptying rate [4]: significantly inhibited gastric emptying rate | number of TAS2R subtypes activated (TAS2R subtypes): eight | nutrient volume tolerance [5]: decreased nutrient volume tolerance | satiation [5]: increased satiation

C=C[C@H]1C[N@]2CC[C@H]1C[C@H]2[C@H](O)c1ccnc2ccc(OC)cc12 [Quinine, (R)-[(2S,4S,5R)-5-ethenyl-1-azabicyclo[2.2.2]octan-2-yl]-(6-methoxyquinolin-4-yl)methanol, reference compound]
number of TAS2R subtypes activated (TAS2R subtypes): nine

CC[N+](CC)(CC(=O)Nc1c(C)cccc1C)Cc1ccccc1 [denatonium saccharide, benzyl-[2-(2,6-dimethylanilino)-2-oxoethyl]-diethylazanium; 1,1-dioxo-1,2-benzothiazol-3-olate]
bitterness relative to denatonium benzoate [6]: 5 times
